# Test results as given in ChEMBL document CHEMBL1201862, “PubChem BioAssay data set” (2004).
#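 The compound was tested at five concentrations on cells cultured in 96-well plates, with a 48-hour exposure period. GI50 is the concentration that inhibits growth by half.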 Calls of active or inactive are those of the source. Cut-off read from the data, not from the text of the source: active = GI50 up to about 1.1 µM and inactive = higher.
# Key:
# Assay in all cases: growth of human tumour cells (NCI), 48 h
# BT-549 = tested on: BT-549
# DMS-273 = tested on: DMS-273
# SNB-78 = tested on: SNB-78
# LXFL 529 = tested on: LXFL 529
# KM-20L2 = tested on: KM-20L2
# HOP-18 = tested on: HOP-18
# DLD-1 = tested on: DLD-1
# XF498 = tested on: XF498
# RXF 631 = tested on: RXF 631
structure (smiles),measurement,setting,value
O=C(O)CC1(C(=O)O)CCCCC1,GI50,BT-549,> 100 µM (inactive)
O=C(c1ccccc1)c1c(C(F)(F)F)[n+]([O-])c2cc(Cl)c(Cl)cc2[n+]1[O-],GI50,BT-549,1.39 µM (inactive)
O=C1CC(=O)NC(NNS(=O)(=O)c2ccc(Cl)cc2)=N1,GI50,BT-549,> 100 µM (inactive)
OC12COc3ccccc3C1Oc1ccccc1C2 (centres undefined),GI50,BT-549,> 100 µM (inactive)
C/C(=N\NC(=S)Nc1ccc(C)cc1)c1nc2cccnc2[nH]1,GI50,BT-549,1.23 µM (inactive)
COc1ccc(OC)c2c1C(=O)C(O)=C(Cl)C2=O,GI50,BT-549,> 100 µM (inactive)
CN(C)CCCNC(=O)CCNC(=O)c1cc(NC(=O)c2cc(NC(=O)c3cc(NC(=O)c4nccn4C)cn3C)cn2C)cn1C,GI50,BT-549,> 100 µM (inactive)
COC(=O)C1Cc2cc3c(cc2C1=O)CCC3 (centres undefined),GI50,BT-549,> 100 µM (inactive)
COc1ccc(N(C)S(=O)(=O)c2ccccc2)cc1,GI50,BT-549,> 100 µM (inactive)
O=C1Nc2c(Cl)cc(Cl)cc2/C1=N/NC(=O)c1ccncc1,GI50,BT-549,37.8 µM (inactive)
N=C(N)NS(=O)(=O)c1ccc(NC(=O)c2cccc3c(O)c4ccccc4nc23)cc1,GI50,DMS-273,> 100 µM (inactive)
same,GI50,SNB-78,42.1 µM (inactive)
same,GI50,LXFL 529,> 100 µM (inactive)
same,GI50,KM-20L2,> 100 µM (inactive)
same,GI50,BT-549,> 100 µM (inactive)
same,GI50,HOP-18,> 86.5 µM (inactive)
same,GI50,DLD-1,> 100 µM (inactive)
same,GI50,XF498,> 100 µM (inactive)
CC(C)(C)OC(=O)NCC(O)CNC(=O)OC(C)(C)C,GI50,BT-549,> 100 µM (inactive)
CC(=O)C1(C)CC(C#N)(C#N)C(C#N)=C1N (centres undefined),GI50,BT-549,> 100 µM (inactive)
Nc1c2ccccc2nc2nccnc12,GI50,DMS-273,> 100 µM (inactive)
same,GI50,SNB-78,> 100 µM (inactive)
same,GI50,KM-20L2,> 100 µM (inactive)
same,GI50,HOP-18,> 100 µM (inactive)
same,GI50,DLD-1,> 100 µM (inactive)
same,GI50,XF498,> 100 µM (inactive)
N#Cc1c(O)c(/C=N/c2ccc(Cl)cc2)c(=O)n2c1[nH]c1ccccc12,GI50,BT-549,> 100 µM (inactive)
CCN1C(NCCO)=NS(=O)(=O)c2ccccc21,GI50,BT-549,> 100 µM (inactive)
CCOc1ccc(C(=O)/C=C2/Nc3ccccc3N/C2=C/C(=O)c2ccc(OCC)cc2)cc1,GI50,BT-549,> 100 µM (inactive)
N#C/C(N)=C(\C#N)NC(=O)C(=O)N/C(C#N)=C(\N)C#N,GI50,BT-549,> 100 µM (inactive)
Clc1cc(Cl)c2c(Cl)cc(Cl)c3c2c1N=S=N3,GI50,DMS-273,> 100 µM (inactive)
same,GI50,SNB-78,> 100 µM (inactive)
same,GI50,LXFL 529,> 100 µM (inactive)
same,GI50,KM-20L2,> 100 µM (inactive)
same,GI50,HOP-18,> 100 µM (inactive)
same,GI50,DLD-1,83.8 µM (inactive)
same,GI50,XF498,12.9 µM (inactive)
Cc1cc(C)c2c(c1)N[S@@](=O)S2,GI50,DMS-273,17.2 µM (inactive)
same,GI50,SNB-78,26.1 µM (inactive)
same,GI50,LXFL 529,13.2 µM (inactive)
same,GI50,KM-20L2,51.3 µM (inactive)
same,GI50,HOP-18,23.6 µM (inactive)
same,GI50,DLD-1,26.9 µM (inactive)
same,GI50,XF498,22.6 µM (inactive)
Cc1cc2c(cc1C)[n+]([O-])c(C(=O)C/C(=N/NC(=O)c1ccccc1O)C(=O)Nc1ccccc1C(C)C)c(C)[n+]2[O-],GI50,DMS-273,99.5 µM (inactive)
same,GI50,SNB-78,> 100 µM (inactive)
same,GI50,LXFL 529,63 µM (inactive)
same,GI50,KM-20L2,> 100 µM (inactive)
same,GI50,HOP-18,89.5 µM (inactive)
same,GI50,RXF 631,> 100 µM (inactive)
same,GI50,DLD-1,53.7 µM (inactive)
COc1ccc(-c2oc3cc(O)c(OC)c(O)c3c(=O)c2OC2OC(CO)C(O)C(O)C2O)cc1 (centres undefined),GI50,DMS-273,> 100 µM (inactive)
same,GI50,SNB-78,> 100 µM (inactive)
same,GI50,LXFL 529,> 100 µM (inactive)
same,GI50,KM-20L2,> 100 µM (inactive)
same,GI50,HOP-18,50.4 µM (inactive)
same,GI50,DLD-1,> 100 µM (inactive)
Cc1cc(C)nc(NC(=S)Nc2ccc(Cl)cc2)c1,GI50,BT-549,> 100 µM (inactive)
Clc1ccccc1/C=C/c1ccnc2ccccc12,GI50,BT-549,14.6 µM (inactive)
CC(C)(C)OC(=O)Cn1ncn(NC(=O)Cc2ccccc2)c1=O,GI50,BT-549,> 10 µM (inactive)
CSc1ccc(N2C(=O)C3c4[nH]c5ccccc5c4C4CCC(C(C)(C)C)CC4C3C2=O)cc1 (centres undefined),GI50,DMS-273,10.6 µM (inactive)
same,GI50,SNB-78,7.94 µM (inactive)
same,GI50,LXFL 529,18.5 µM (inactive)
same,GI50,KM-20L2,48.4 µM (inactive)
same,GI50,HOP-18,22.8 µM (inactive)
same,GI50,DLD-1,52.4 µM (inactive)
same,GI50,XF498,27.7 µM (inactive)
CC(=O)N[C@@H](Cc1ccc(O)cn1)C(=O)NC1CCCCC1,GI50,BT-549,> 100 µM (inactive)
Nc1nc(N)c(C2=CCNCC2)c(=O)[nH]1,GI50,BT-549,> 100 µM (inactive)
COc1cc(/C=C(\C#N)c2ccccc2)cc(OC)c1,GI50,SNB-78,82.4 µM (inactive)
same,GI50,LXFL 529,43.4 µM (inactive)
same,GI50,KM-20L2,41.1 µM (inactive)
same,GI50,DLD-1,76.9 µM (inactive)
same,GI50,XF498,48 µM (inactive)
OC(CCN1CCN(CCOC(c2ccccc2)c2ccccc2)CC1)c1ccccc1 (centres undefined),GI50,BT-549,23.8 µM (inactive)
CS/C(c1ccccc1)=[N+](/C)[O-],GI50,SNB-78,> 100 µM (inactive)
same,GI50,LXFL 529,> 100 µM (inactive)
same,GI50,KM-20L2,> 100 µM (inactive)
same,GI50,HOP-18,> 100 µM (inactive)
same,GI50,RXF 631,> 100 µM (inactive)
same,GI50,DLD-1,> 61.5 µM (inactive)
same,GI50,XF498,> 100 µM (inactive)
CN(C)/C=C/c1nnc([N+](=O)[O-])s1,GI50,BT-549,17.9 µM (inactive)
C=CCCCC1SC2=C(CC)CCCN2C1=O (centres undefined),GI50,BT-549,46.3 µM (inactive)
